The text below walks through data of ChEMBL document CHEMBL1201862, “PubChem BioAssay data set” (2004).

Molecules are shown by their SMILES.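 Each compound was tested at five concentrations against cells in 96-well plates for 48 hours. GI50 is the concentration that inhibits growth by half.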 Calls of active or inactive are those of the source. No stated cut-off is given here; in the data, active = GI50 up to about 1.1 µM and inactive = higher. Some results are limits rather than exact numbers.

Among the test systems are M19-MEL; KM-20L2; HOP-18; DMS-114; DLD-1; SNB-78; LXFL 529; RXF 631; XF498.
What all share (test): NCI-60 cell line screen, 48 h

Consider `COc1ccc(N/N=C(\CCN(C)C)c2ccccc2)cc1`, for which the GI50 is 3.82 µM (inactive) in the assay on M19-MEL; 0.489 µM (active) in the assay with KM-20L2; 22.1 µM (inactive) in the assay on HOP-18; 10.9 µM (inactive) with DMS-114; 1.66 µM (inactive) in the assay on DLD-1; 12.8 µM (inactive) with SNB-78. In addition, in the assay with LXFL 529, the GI50 is 1.6 µM (inactive).

Take `CC(=O)Nc1ccc(/C=C/C(=O)c2sc(-n3nc(-c4ccccc4)cc3-c3ccccc3)nc2C)cc1`: the GI50 in the assay with M19-MEL is > 10 µM (inactive); in the assay with KM-20L2, > 10 µM (inactive); in the assay with HOP-18, > 10 µM (inactive); in the assay on DMS-114, 74.8 µM (inactive); in the assay with RXF 631, > 10 µM (inactive); in the assay on DLD-1 it was > 10 µM (inactive). Further, the GI50 in the assay on SNB-78 and with LXFL 529 was > 10 µM (inactive) throughout.

`C=CCC12CC(=O)CCC1c1ccc(OC)cc1C2=O` (stereo not given): the GI50 in the assay on M19-MEL, in the assay with KM-20L2, in the assay with HOP-18, in the assay with DMS-114, in the assay on DLD-1 and in the assay with SNB-78 was > 100 µM (inactive) each time. Also, in the assay on LXFL 529, the GI50 is > 100 µM (inactive).

Take `c1cnc2c(c1)-n1cccc1C1(CCSC1)NN2` (stereo not given): the GI50 was > 100 µM (inactive) with M19-MEL; 28.4 µM (inactive) in the assay with HOP-18; > 100 µM (inactive) with DMS-114; > 100 µM (inactive) in the assay with DLD-1; > 100 µM (inactive) in the assay on XF498; > 100 µM (inactive) with SNB-78.

As to `OCC1CC2C=CCC(C2)C1` (stereo not given), the GI50 in the assay on M19-MEL, in the assay with KM-20L2, in the assay with HOP-18, with DMS-114, in the assay on DLD-1 and in the assay with XF498 was > 100 µM (inactive) each time. For the same compound, the GI50 in the assay on SNB-78 and in the assay with LXFL 529 was > 100 µM (inactive) in each case.

`CCOC(=O)C1(Br)C(c2ccccc2)NC(=O)N(C2OC(COC(=O)c3ccccc3)C(OC(=O)c3ccccc3)C2OC(=O)c2ccccc2)C1(C)Br` (stereo not given): the GI50 with M19-MEL was 28.4 µM (inactive); with KM-20L2, 37.9 µM (inactive); in the assay on HOP-18 it was > 100 µM (inactive); in the assay with DMS-114, 18.3 µM (inactive); in the assay with RXF 631 it was 15.3 µM (inactive); with DLD-1, 36.4 µM (inactive). The GI50 with LXFL 529 is 21.6 µM (inactive).

`COc1nc(NC2OCC(O)C(O)C2O)c(NC2OCC(O)C(O)C2O)c(=O)n1C` (stereo not given): the GI50 with M19-MEL, in the assay with KM-20L2, with HOP-18, with DMS-114, in the assay with DLD-1 and with XF498 was > 100 µM (inactive) throughout. For the same compound, the GI50 in the assay with SNB-78 and with LXFL 529 was > 100 µM (inactive) throughout.

As to `O=C1c2cnccc2Cc2cccc3c2N1c1ccccc1S3`, the GI50 with M19-MEL was 28.9 µM (inactive); with KM-20L2, 17.6 µM (inactive); in the assay on DMS-114, 26.4 µM (inactive); with RXF 631, 26.1 µM (inactive); in the assay on DLD-1, 29.2 µM (inactive); with XF498, 15.1 µM (inactive). Also, the GI50 in the assay on LXFL 529 was 27.5 µM (inactive).

Take `Cc1cccc(C)c1NC(=O)C(=O)CC(=O)CO`: the GI50 in the assay with M19-MEL, with KM-20L2, in the assay with HOP-18, with DMS-114, with RXF 631 and in the assay with DLD-1 was > 100 µM (inactive) throughout. Also, the GI50 in the assay on SNB-78 and in the assay on LXFL 529 was > 100 µM (inactive) throughout.

Take `CCOC(=O)N[C@@H]1C2CC(=O)C(O2)[C@@H]1OC` (stereo not given in full): the GI50 in the assay with M19-MEL, in the assay on KM-20L2, in the assay with HOP-18, with DLD-1 and in the assay with SNB-78 was > 100 µM (inactive) each time.

As for `O=C(O)CN(CC(=O)O)Cc1cc(C#Cc2ccc(C#Cc3ccccc3)cc2)cc(CN(CC(=O)O)CC(=O)O)n1`, the GI50 is 17.5 µM (inactive) in the assay with M19-MEL; 17 µM (inactive) in the assay with KM-20L2; 33.4 µM (inactive) with HOP-18; 13.8 µM (inactive) in the assay on DMS-114; 8.53 µM (inactive) in the assay on DLD-1; 20.5 µM (inactive) in the assay with XF498. For the same compound, the GI50 was 44.3 µM (inactive) with SNB-78 and 27.2 µM (inactive) in the assay on LXFL 529.

As to `NCC(=O)OCN1C(=O)C2C3C=CC(C2C1=O)C1C2C(=O)N(COC(=O)CN)C(=O)C2C31` (stereo not given), the GI50 in the assay on M19-MEL was 24.8 µM (inactive); in the assay on KM-20L2, 24.3 µM (inactive); in the assay on HOP-18, 25.6 µM (inactive); in the assay on DMS-114 it was 20.9 µM (inactive); in the assay on DLD-1, 24.3 µM (inactive); in the assay on XF498, 17.9 µM (inactive). In addition, the GI50 was 42 µM (inactive) in the assay with SNB-78 and 22.7 µM (inactive) with LXFL 529.

On to `CCCCc1c2c(nc3c1CCc1cc4c(nc1-3)-c1nc3c(c(CCCC)c1CC4)CCC/C3=C\c1ccccc1)/C(=C/c1ccccc1)CCC2`, for which the GI50 in the assay with M19-MEL was > 100 µM (inactive); with KM-20L2, > 100 µM (inactive); in the assay with DMS-114, 47.5 µM (inactive); in the assay on DLD-1, > 100 µM (inactive); in the assay with XF498, 32.5 µM (inactive); in the assay on SNB-78, 39.4 µM (inactive). In addition, the GI50 in the assay on LXFL 529 was 30.8 µM (inactive).

`CC(C)OP(=O)(OC(C)C)/C(=N/Nc1ccc([N+](=O)[O-])cc1)NCCN/C(=N\Nc1ccc([N+](=O)[O-])cc1)P(=O)(OC(C)C)OC(C)C`: the GI50 with M19-MEL was 5.85 µM (inactive); in the assay with KM-20L2 it was 4.52 µM (inactive); in the assay on DMS-114 it was 3.85 µM (inactive); with DLD-1, 4.71 µM (inactive); in the assay on XF498 it was 3.18 µM (inactive); in the assay with LXFL 529, 3.17 µM (inactive).

As to `N#CC1(c2nc3ccccc3o2)C(=O)C(=O)N(c2ccc(Cl)c(Cl)c2)C(=O)C1=O`, the GI50 with KM-20L2 is > 100 µM (inactive); in the assay on HOP-18, > 100 µM (inactive); in the assay on DLD-1, > 100 µM (inactive); in the assay with XF498, > 100 µM (inactive); with SNB-78, > 100 µM (inactive); in the assay on LXFL 529 it was 58.1 µM (inactive).

As for `Cc1c(Cl)ccc2c1NC(=O)C2(O)CC(=O)c1ccc(Cl)cc1` (stereo not given), the GI50 is 6.62 µM (inactive) in the assay with M19-MEL; > 100 µM (inactive) with KM-20L2; > 70.8 µM (inactive) in the assay on HOP-18; 11.7 µM (inactive) in the assay on DMS-114; 71.1 µM (inactive) in the assay on RXF 631; 42.9 µM (inactive) with DLD-1. For the same compound, the results for the GI50 in the assay on SNB-78 and in the assay with LXFL 529 were > 96.6 µM (inactive) and > 38.9 µM (inactive), respectively.

In the case of `COCN(C)c1nc(N(C)C)nc(N(C)C)n1`, the GI50 is > 100 µM (inactive) with M19-MEL; > 100 µM (inactive) with KM-20L2; 89.3 µM (inactive) with HOP-18; > 100 µM (inactive) in the assay with DMS-114; > 100 µM (inactive) in the assay with DLD-1; > 100 µM (inactive) in the assay with SNB-78. Also, the GI50 in the assay with LXFL 529 is 81.5 µM (inactive).

Consider `CN(C)C(=S)/N=c1\ssc(=S)n1Cc1cccs1`, for which the GI50 in the assay with M19-MEL is 3.16 µM (inactive); with KM-20L2, 1.87 µM (inactive); in the assay with HOP-18 it was 8.89 µM (inactive); with DMS-114 it was 2.15 µM (inactive); in the assay on DLD-1, 3.82 µM (inactive); in the assay on SNB-78 it was 6.68 µM (inactive). Further, in the assay on LXFL 529, the GI50 was 4.75 µM (inactive).

Consider `COC(=O)C(Cc1nc2ccccc2nc1O)C(=O)C(=O)Nc1ccc(OC)cc1[N+](=O)[O-]` (stereo not given), for which the GI50 with M19-MEL, in the assay on KM-20L2, with XF498, in the assay on SNB-78 and with LXFL 529 was > 100 µM (inactive) in each case.

As to `CCNC(=O)COc1ccc(Br)cc1Br`, the GI50 in the assay on M19-MEL is > 100 µM (inactive); with KM-20L2 it was > 100 µM (inactive); in the assay on HOP-18 it was > 100 µM (inactive); in the assay with DMS-114 it was > 100 µM (inactive); with RXF 631 it was 69.7 µM (inactive); in the assay with DLD-1 it was > 100 µM (inactive). In addition, the GI50 in the assay on SNB-78 and with LXFL 529 was > 100 µM (inactive) throughout.

On to `Cc1ccc(NC(=O)C(=O)C(C#N)c2nc(-c3ccc(-c4ccccc4)cc3)cs2)c(C)c1` (stereo not given), for which the GI50 in the assay with M19-MEL, in the assay on KM-20L2, in the assay with HOP-18, in the assay on DMS-114, in the assay on DLD-1 and in the assay with SNB-78 was > 100 µM (inactive) each time. Besides, the GI50 in the assay on LXFL 529 is > 100 µM (inactive).

With `Cc1ccc(NC(=O)CC(=O)N2N=C(N(CCC#N)c3cccc(C)c3)CC2c2ccccc2)cc1` (stereo not given), the GI50 in the assay with M19-MEL, in the assay with KM-20L2, in the assay with HOP-18, in the assay on DMS-114, in the assay with DLD-1 and with SNB-78 was > 100 µM (inactive) each time. In the assay with LXFL 529, the GI50 is > 100 µM (inactive).

As to `C[C@]12CCC[C@H](Cl)C1(O)C[C@H](C(=O)O)CC2` (stereo not given in full), the GI50 in the assay on M19-MEL, in the assay on KM-20L2, in the assay on HOP-18, in the assay with DMS-114, in the assay on DLD-1 and with XF498 was > 100 µM (inactive) each time. For the same compound, the GI50 with SNB-78 and with LXFL 529 was > 100 µM (inactive) in each case.

Regarding `NC(CCC(=O)Nc1ccc(O)cc1)C(=O)O` (stereo not given), the GI50 in the assay with KM-20L2, in the assay on HOP-18, in the assay on DMS-114, with DLD-1, in the assay with XF498 and in the assay with SNB-78 was > 100 µM (inactive) throughout. Moreover, the GI50 in the assay on LXFL 529 was > 100 µM (inactive).

For the compound `COc1cc(/C=C\c2ccc(SC)cc2)cc(OC)c1OC`, the GI50 with M19-MEL was 0.0278 µM (active); with KM-20L2, 0.0182 µM (active); in the assay with HOP-18 it was 0.0453 µM (active); with DMS-114, < 0.0202 µM (active); in the assay with DLD-1, 0.0409 µM (active); with XF498 it was 0.0908 µM (active). The values for the GI50 in the assay with SNB-78 and in the assay on LXFL 529 were 0.0452 µM (active) and < 0.0221 µM (active), respectively.

`Nc1ccc(N)c2c1C(=O)c1c(N)ccc(N)c1C2=O`: the GI50 with M19-MEL is > 71.1 µM (inactive); with KM-20L2 it was > 100 µM (inactive); with HOP-18, 16.3 µM (inactive); with DMS-114, 30.6 µM (inactive); with DLD-1, 78.7 µM (inactive); in the assay on XF498, > 54.5 µM (inactive). Besides, the GI50 with SNB-78 is 78.5 µM (inactive).
